From patent US20240408112A1, “METHOD FOR PREVENTING OR TREATING PULMONARY ARTERIAL HYPERTENSION BY USING 7-DEHYDROCHOLESTEROLS OR SALTS, OXIDES, METABOLITES, OR DERIVATIVES THEREOF” (EXCELSIOR PHARMATECH LABS., priority 2023, published 2024)

Legend:
[1] = test system: human pulmonary artery endothelial cells (hPAEC); test: BrdU cell proliferation assay, 10% FBS, hPAEC; type: cell-based
Protocol: (§1) BrdU (5-bromo-2-deoxyuridine) cell proliferation assay (BrdU assay)
(§2) A 48-well plate was used, and 1.5×10^4 cells were implanted in each well. After 24 hours, the medium was changed to serum-free culture medium and synchronized for 24 hours. A 2-fold concentration of the compound in serum-free culture medium is prepared and the cells were pretreated for 1 hour. Then, the same volume of culture medium containing 20% fetal bovine serum (FBS) was added to dilute the compound. The final concentration was 10% FBS culture medium and 1 times the concentration of the compound. In the experimental group that added TGF-β, the same volume of TGF-β culture medium containing 10 ng/mL was added, with a final concentration of 5 ng/mL TGF-β and 1 times the concentration of the compound, and in the experimental group added with TGF-β, the entire process was conducted in culture medium containing 0.1% serum. Then, BrdU reagent was added about 6 hours later, and the cells were collected the next day for enzyme-linked immunosorbent assay (ELISA) analysis, the compound treatment time was about 24 hours, and the BrdU treatment time was about 18 hours.
(§3) Five compounds to be tested were screened by cell survival assay (MTT assay) and BrdU (5-bromo-2-deoxyuridine) cell proliferation assay, and the information of these compounds was listed in Table 1 below. Tables 2 and 3 respectively listed the growth inhibitions of on human pulmonary artery endothelial cells (hPAEC), human pulmonary artery smooth muscle cells (hPASMC), normal rat pulmonary artery smooth muscle cells (rPASMC, as the control group, represented by “CON”), and rat pulmonary artery smooth muscle cells (represented by “MCT”), by the five compounds to be tested under the conditions of 10% FBS, 0.1% FBS and 100 pM TGF-β.

[2] = test system: human pulmonary artery endothelial cells (hPAEC); test: BrdU cell proliferation assay, 0.1% FBS, 100 pM TGF-β, hPAEC; type: cell-based; settings: hPAEC, 100 pM TGF-β, 0.1% FBS
Protocol: as §1, §2, §3

[3] = test system: human pulmonary artery smooth muscle cells (hPASMC); test: BrdU cell proliferation assay, 0.1% FBS, 100 pM TGF-β, hPASMC; type: cell-based; settings: hPASMC, 100 pM TGF-β, 0.1% FBS
Protocol: as §1, §2, §3

[4] = test system: TGF-β-stimulated PAI-1 promoter activity; test: TGF-β stimulated Pai-1 luciferase assay in MLECs-clone32 cells; type: cell-based; settings: TGF-β 50 pM, 4 hours, read-out: IC50 value of compound inhibiting TGF-β-stimulated Pai-1 luciferase activity (%)
Source text: TGF-β Stimulated Pai-1 Luciferase Assay
MLECs-clone32 cell line was used to measure the impact of different compounds on the downstream gene, plasminogenactivator inhibitor 1 (PAI-1) performance stimulated by TGF-β. MLECs-clone32 is an expression construct that is stably transfected for the Mv1Lu cell line, and the expression construct PAI-1 Luciferase contains a truncated (PAI-1) promoter fused to the firefly luciferase reporter gene^11,12. The activity stimulated by the truncated PAI-I promoter was quantified by using a luciferase assay. The luciferase activity stimulated by TGF-β in cells without compound treatment was set as 100%, and the effects of each compound on TGF-β-stimulated PAI-I promoter activity were compared. The steps for measuring Pai-1 luciferase activity include using a 96-well plate (DMEM medium containing 10% FBS), seeding each well with 1.5×10^5 cells, and culturing in an incubator overnight. After discarding the medium the next day, cells in DMEM medium with or without the addition of test compounds were treated with recombinant TGF-β (50 pM) and allowed to react in a 37° C. incubator for 4 hours. The cell culture medium was aspirated, washed with PBS, and the activity of Pai-1 luciferase was evaluated by luciferase assay.

[5] = test system: monocrotaline induced pulmonary hypertension rat; test: Monocrotaline-induced pulmonary arterial hypertension rat model, Example 2 (7-DHC, 042); type: in vivo; settings: for Arterial gas analysis pH value, PaO2 and PaCO2, in words: between groups CON, MCT and treated; for Base excess (BE) value: MCT group −5.5, normal −2 to +2
Source text: Pulmonary arterial hypertension animal experimental model
The present disclosure utilizes injection of monocrotaline to induce symptoms of pulmonary arterial hypertension in rats to establish a pulmonary arterial hypertension animal experimental model suitable for screening test drugs.
The diagnostic method of clinical pulmonary arterial hypertension standards is right heart catheterization, which is defined as mean pulmonary arterial pressure (mPAP) greater than or equal to 20 mmHg. The diagnostic criteria for pulmonary arterial hypertension, in addition to an increase in mean pulmonary arterial pressure, need to be combined with pulmonary vascular resistance (PVR) greater than 3 Wood unit. The right ventricle pressure (RVP) and systemic mean blood pressure (mbp) in rats with pulmonary arterial hypertension were measured by Millar Model PCU200 pressure system, and the heart rate (HR) was also monitored at the same time. After measuring the hemodynamic data, the arterial blood was extracted from the carotid artery of the pulmonary arterial hypertension rat, and the Abbott blood oximeter (i-STAT) combined with Abbott's special chip cartridge (i-STAT Cartridge G3+) was used to measure arterial gas analysis data such as pH, PaO2, PaCO2, HCO3 and base excess (BE) value in quantitative whole blood samples. The normal pH value is between 7.35 and 7.45, and the pH value indicates whether the experimental animal has the condition of acidemia, alkalemia, acidosis or alkalosis. The normal value of PaO2 is between 80 and 100 mmHg, which reflects the effectiveness of gas exchange (ventilation/perfusion). The normal value of PaCO2 is between 35 and 45 (such as 38 and 42) mmHg, which can evaluate the effectiveness of alveolar ventilation. The acid produced by food, tissue decomposition, inflammation and hypoxia rely on the lungs to excrete volatile acid CO2 (short-term) and the bicarbonate (HCO3^−) produced by the kidneys (long-term) to neutralize non-volatile acids, while the normal value of bicarbonate hydrogen radical (HCO3^−) is between 22 and 26 meq/L. BE is the base excess value, its normal value ranges from −2 to +2, the negative value represents the degree of alkali ion deficiency in the blood, a negative BE value (−) that is too high indicates metabolic acidosis, and a positive value (+) that is too high is metabolic alkalosis. At the end of the experiment, the rats were sacrificed and their hearts were removed and the left and right ventricles were separated and weighed (RV)/(S)+(LV).
Monocrotaline (MCT) was utilized to induce pulmonary hypertension rat animal model, the TGF-β receptor inhibitor 7-DHC (039) and compound No. 042 were tested via intraperitoneal (IP) administration, and the physiological parameters of the animals were collected, wherein includes measuring right ventricle pressure, systemic arterial pressure, heartbeat and right ventricle hypertrophy, as well as observing and analyzing the pulmonary artery thickening and blood oxygenation levels through pathological sections of lung tissue. Specifically, 7-DHC (039) was divided into two groups with a dosage of 10 mg/kg or 20 mg/kg, the dosage of group 042 was 50 mg/kg, each dosage group has 3 rats (n=3), while the control group (CON) and the pulmonary arterial hypertension rat group (MCT) had 6 rats (n=6) respectively.

Structure (SMILES): CC(C)CCCC(C)C1CCC2C3=CC=C4CC(O)CCC4(C)C3CCC21C (stereo not drawn) [Code 039, 7-DHC]
- EC50 ([1]; Homo sapiens, Endothelial cell, read-out: EC50 (concentration for 50% of maximal effect)): 47 µM
- Inhibition of cell growth (in words) ([1]; hPAEC, 10% FBS, FIG. 2): inhibition of cell growth can also be observed
- EC50 ([2]; Homo sapiens, Endothelial cell, read-out: EC50): 23 µM
- Inhibition of cell growth (in words) ([2]; 25 μM, FIG. 3): inhibition of cell growth
- EC50 ([3]; Homo sapiens, read-out: EC50): 24 µM
- Inhibition of cell growth (in words) ([3]; 25 μM, FIG. 3): inhibition of cell growth
- IC50 [4]: 15.5 µM
- Arterial gas analysis pH value, PaO2 and PaCO2, in words ([5]; 10 mg/kg IP): did not show any significant differences
- Thickness of the pulmonary artery blood vessels (medial wall thickness), in words ([5]; 10 mg/kg IP, p<0.001, vs MCT rats (exceeded 55%)): significantly reduced
- Base excess (BE) value ([5]; 10 mg/kg IP): −2
- Animal survival status ([5]; 20 mg/kg IP, 23rd day after monocrotaline induction): had died
- Arterial gas analysis pH value, PaO2 and PaCO2, in words ([5]; 20 mg/kg IP): did not show any significant differences
- Base excess (BE) value ([5]; 20 mg/kg IP): 0
- Systemic blood pressure and heartbeat, in words ([5]; 10 or 20 mg/kg IP): did not reduce
- Right ventricle pressure (RVP), in words ([5]; 10 or 20 mg/kg IP, vs MCT rats (28 mmHg)): can be reduced
